Consider 95 molecules from PubChem BioAssay AID602296 (Broad Institute, 2012).

Records with an inconclusive call do not appear. Calls of active or inactive are those of the source.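 How the source made its calls: active means fitted activation curve crossing 40% at a concentration no higher than the sample's top valid tested dose; inconclusive means flat fitted curve at 30% to 70% activation, or poor curve fit; inactive means signal decrease, flat curve within 30%, or the rest.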

This assay has as its system NIH3T3-HGL HSF-1 response element luciferase, 48 h. As to the kind of experiment: HSF-1 reporter activators over prolonged exposure, confirmation, cell-based, mouse, luciferase, cherry-pick, dose (AID 602296).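 Further: test compounds applied by themselves with no MG132 co-treatment.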

Take `Cc1ccc(=O)n(C(C(=O)NCc2ccco2)C(=O)c2ccc(F)cc2)c1` (stereo not given): the AC40 was > 26 µM (inactive).
In the case of `O=c1c2cc(N3CCOCC3)ccc2[nH]c(=S)n1Cc1ccccn1` it was 23.5 µM; in that of `Cc1nc(/C(N)=N/OC(=O)Cc2ccccc2)no1`, 22.2 µM; in that of `CC1(C)CC(=O)C2=C(C1)OC(N)=C(C#N)C2C#Cc1ccccc1` (stereo not given), 10.4 µM.
In the case of `O=C(C1CCC(CNS(=O)(=O)c2cccc3nsnc23)CC1)N1CCN(c2ccccn2)CC1` (stereo not given) it was > 26 µM (inactive); in that of `c1ccc2c(Nc3nnc(-c4ccncc4)s3)cccc2c1`, 1.24 µM.
In the case of `NC(=O)CSC1=N/C(=C\c2ccco2)C(=O)N1c1ccc(OC(F)F)cc1` it was 8.11 µM; in that of `NS(=O)(=O)c1ccc(NC(=O)CN2C(=O)CCC2=O)cc1`, > 26 µM (inactive).
With `CCOC(=O)Cn1nnc(-c2cccc(OC)c2)n1`, the AC40 is 12.8 µM.
In the case of `Cc1ccc(NC2c3ncccc3C(=O)N2C2CCCCC2)cc1` (stereo not given) it was > 26 µM (inactive).
Turning to `COCCCn1c(Cc2csc(Nc3ccc(F)cc3)n2)nnc1SCC(N)=O`, the AC40 was > 26 µM (inactive).
In the case of `Cn1nnc2c[n+](CC(=O)c3ccc4ccccc4c3)cc(Br)c21` it was > 26 µM (inactive).
In the case of `CCc1[nH]nc2c1C1(CCN(C(=O)OCc3ccccc3)CC1)C(C#N)=C(N)O2` it was > 26 µM (inactive); in that of `C[C@H](NC(=O)[C@@H]1CSC2c3ccccc3C(=O)N21)C(=O)NCCc1ccccc1` (stereo not given in full), 24.7 µM; in that of `O=C(CSc1nnc(-c2cccs2)o1)N1CCCc2ccccc21`, > 26 µM (inactive).
In the case of `Cc1[nH]c2ccccc2c1/C=C(\C#N)C(=O)NCC1CCCO1` (stereo not given) it was 9.18 µM; in that of `Cc1onc(-c2ccccc2)c1C(=O)N=C(N)c1ccc(C(F)(F)F)cc1`, > 26 µM (inactive).
For the molecule `COCCCNc1nc2nonc2nc1N1CCN(Cc2cccc(C)c2)CC1`, the AC40 was > 26 µM (inactive).
`O=[N+]([O-])c1ccc(-c2csc(Nc3ccccc3)[n+]2Cc2ccccc2)cc1`: the AC40 is 10.9 µM.
In the case of `CN(CCC1CCCCO1)C(=O)CCc1nnc(CCCCc2ccccc2)o1` (stereo not given) it was 5.66 µM.
In the case of `Cc1ccc(CNC(=O)CSc2ccsc2[N+](=O)[O-])cc1` it was 0.83 µM; in that of `COc1ccc(C2CC(=O)c3cnc(N4CCc5ccccc54)nc3C2)cc1OC` (stereo not given), > 26 µM (inactive).
In the case of `COc1cccc(N=Nc2c(O)[nH]c(=S)[nH]c2=O)c1` it was 10.1 µM; in that of `O=C(NCc1ccccc1)c1c(Cl)nc(Cl)c(Cl)c1Cl`, > 26 µM (inactive); in that of `COc1cccc(-c2nnc(SCc3nc4ccccc4[nH]3)n2N)c1`, 18.6 µM.
In the case of `Cc1nc2scc(-c3ccc(Cl)cc3)c2c(=O)n1N`, the AC40 is > 26 µM (inactive).
For the molecule `CNC(=O)C1CC(=O)N(c2ccc(OCC(=O)N3CCCC3)cc2)C1` (stereo not given), the AC40 is > 26 µM (inactive).
As for `CCC1CCCCN1C(=O)COC(=O)c1cc2ccccc2cc1O` (stereo not given), the AC40 was > 26 µM (inactive).
With `O=C(N/N=C/CCc1ccccc1)c1ccccc1`, the AC40 is 15.5 µM.
In the case of `O=C(CN1C(=O)NC2(CCCC2)C1=O)NCCN1C(=O)S/C(=C\c2ccccc2F)C1=O` it was > 26 µM (inactive); in that of `CN1C(=O)C2C(c3ccc(N(C)C)cc3)=NN(Cc3ccccc3)C2C1=O` (stereo not given), > 26 µM (inactive); in that of `Cc1ccc(C(=O)NNC(=O)c2ccccc2-n2cccc2)cc1`, > 26 µM (inactive).
In the case of `CCC1(C)N=C(N)Nc2nc3cc(C)c(C)cc3n21` (stereo not given), the AC40 is 24.5 µM.
Consider `O=C(CCC1CCCN(C(=O)c2ccc3cc[nH]c3c2)C1)NCc1ccc(F)c(F)c1` (stereo not given), for which the AC40 is 14.8 µM.
In the case of `CC1=C(C(=O)N2CCOCC2)C(c2c(C)cc(C)cc2C)NC(=S)N1` (stereo not given) it was > 26 µM (inactive); in that of `O=C(NNc1cccc(Cl)n1)Nc1ccc(Cl)cc1`, > 26 µM (inactive).
In the case of `COc1cc2c(cc1OC)C(CCc1ccccc1)=NCC2` it was > 26 µM (inactive); in that of `COc1ccc(C)cc1Cn1c(S(C)(=O)=O)nc2ccccc21`, > 26 µM (inactive); in that of `Cn1cc(C=O)c(-c2ccc3c(c2)OCCCO3)n1`, 3.77 µM.
In the case of `COc1cc(C2Nc3ccc4ncccc4c3C3=C2C(=O)CCC3)cc(OC)c1OC` (stereo not given) it was 5.44 µM; in that of `COc1ccc(C(=O)NCC(=O)OCC(=O)c2ccc3c(c2)NC(=O)CO3)cc1`, > 26 µM (inactive).
Turning to `COc1cccc(Sc2ccccc2/C=N/NC(N)=O)c1`, the AC40 was > 26 µM (inactive).
In the case of `O=C(CSc1cccc2cccnc12)N/N=C/c1cccnc1` it was > 26 µM (inactive).
Consider `COc1ccc(/C=C/C(=O)NCCCc2ccccc2)cc1`, for which the AC40 is > 26 µM (inactive).
Turning to `CC(C)(C)C(=O)NCC12C=CC(O1)C1C(=O)N(c3ccccc3)C(=O)C12` (stereo not given), the AC40 is > 26 µM (inactive).
In the case of `Fc1ccccc1-c1nc2nc3ccccc3nc2n1CC1CCCO1` (stereo not given) it was 21.8 µM.
In the case of `CC1(C)CC(=O)C(C=Nc2cccnc2)=C(O)C1` it was > 26 µM (inactive); in that of `O=C(CC1(O)C(=O)Nc2ccc(Br)cc21)c1ccc2c(c1)OCO2` (stereo not given), > 26 µM (inactive); in that of `C=CCNC(=S)N/N=C/c1ccc(-c2ccc(Br)cc2)o1`, 22 µM.
In the case of `Clc1ccc(SCc2csc(N3CCOCC3)n2)cc1` it was > 26 µM (inactive); in that of `CCOC(=O)CSc1cc(-c2ccccc2)nc2ncnn12`, > 26 µM (inactive); in that of `Cc1cc(C)cc(Oc2ccccc2/C=C\C(=O)O)c1`, > 26 µM (inactive).
As for `O=C1C2CC=CCC2C(=O)N1c1ccc(NCCc2ccccc2)c([N+](=O)[O-])c1` (stereo not given), the AC40 was 3.31 µM.
In the case of `O=C1Nc2ccccc2/C1=C/c1cnc[nH]1` it was > 26 µM (inactive); in that of `CSc1c(C#N)c(N)nc2sc(C(=O)c3ccccc3)c(N)c12`, 5.48 µM; in that of `Clc1ccc(-c2nc(/C=N/N3CCOCC3)c3ccccn23)cc1`, 18.3 µM.
In the case of `CCCCN(CCCNC(=O)C1CCN(S(=O)(=O)CC)CC1)c1ccccc1` it was 10.4 µM.
For `CC1=Nc2ccccc2/C1=C/c1nc(-c2ccc(C)s2)oc1O`, the AC40 is 10.1 µM.
In the case of `Cc1ccc(C(=O)NC(=C(Cl)Cl)S(=O)(=O)c2ccc(Cl)cc2)cc1` it was 8.29 µM.
As to `O=C(O)CSc1nnnn1-c1ccc2c(c1)OCCO2`, the AC40 is > 26 µM (inactive).
In the case of `c1ccc(SCCOCCN2CCOCC2)cc1` it was > 26 µM (inactive); in that of `C[C@@H]1C(NC(=O)c2ccccc2)CC2CC1C2(C)C` (stereo not given in full), > 26 µM (inactive).
In the case of `CC(=O)c1ccc(NC(=S)N2C(C)CCCC2C)cc1` (stereo not given) it was 20.8 µM; in that of `C=CCn1c(SCC(=O)Nc2cc(NC(C)=O)ccc2OC)nnc1-c1cccnc1`, > 26 µM (inactive).
In the case of `S=C(N/N=C/c1cccs1)NC1CC2CCC1C2` (stereo not given) it was 4.41 µM; in that of `COc1ccc(-c2nnc3ccc(SCC(=O)NCC4CCCO4)nn23)cc1` (stereo not given), > 26 µM (inactive).
As for `CC(C)OC(=O)c1ccc(COc2ccc3ccc(=O)oc3c2)o1`, the AC40 is 3.16 µM.
In the case of `Cc1ccccc1/[N+]([O-])=C/c1cccs1` it was > 26 µM (inactive).
In the case of `O=C(CN1c2ccccc2S(=O)(=O)c2ccccc21)NCc1ccc(F)cc1` it was > 26 µM (inactive); in that of `Clc1ncnc2scc(C3COc4ccccc4O3)c12` (stereo not given), 17.7 µM.
In the case of `Cc1ccc2cccnc2c1NC(=S)NC(=O)c1ccccc1` it was > 26 µM (inactive); in that of `CC(C)(C)NC(=O)NC(=O)CN1CC=C(c2ccccc2)CC1`, > 26 µM (inactive).
Consider `Cc1cnn(-c2cc(N/N=C/c3cccc(F)c3)ncn2)c1`, for which the AC40 is 9.32 µM.
In the case of `COC(=O)c1cc(OC)c(OC)cc1NC(=S)NC(=O)c1ccco1` it was > 26 µM (inactive); in that of `CCOCCCNC(=S)Nc1ccc2nc(N3CCOCC3)cc(C)c2c1`, > 26 µM (inactive); in that of `CC(C)(CN)CC(=O)O`, > 26 µM (inactive).
In the case of `CCCCc1c(O)nc(SCC(=O)N2CCOCC2)n(-c2ccc(OC)cc2)c1=O` it was > 26 µM (inactive); in that of `Cc1ccc(-n2cc(CNCCN3CCOC3=O)c(-c3cccc(C)c3)n2)cc1`, 17.4 µM.
In the case of `COC(=O)c1ccc(C(=O)OC)c(NC(=O)C(C)(C)C)c1` it was > 26 µM (inactive); in that of `Cc1nc(SCCOc2ccc(F)cc2)c2ccccc2n1`, 3.44 µM.
Turning to `Cc1[nH]n(-c2ccccc2)c(=O)c1C=NCCc1ccccc1`, the AC40 is 9.52 µM.
In the case of `COc1cccc(/C=N/NC(=S)NC2CC3CC2C2C=CCC32)c1O` (stereo not given) it was > 26 µM (inactive).
In the case of `Cc1cc(C)n2nc(C(=O)N/N=C/c3c4ccccc4cc4ccccc34)nc2n1` it was > 12 µM (inactive).
In the case of `COc1cc(OC)cc(-c2nnc(Sc3ccc(C=O)cc3[N+](=O)[O-])o2)c1` it was > 26 µM (inactive); in that of `O=C(CC12CCC(CC1)C2)NCc1ccc2c(c1)OCO2`, > 26 µM (inactive).
Take `Cc1ccc(CC2SC(N=C(N)N)=NC2=O)cc1` (stereo not given): the AC40 was > 26 µM (inactive).
In the case of `Cc1cccc(N2CCN(c3cccc(C)c3)C2c2cccnc2)c1` it was > 12 µM (inactive); in that of `Cc1ccc(S(=O)(=O)CCN2CCN(c3ccccc3)CC2)cc1`, > 26 µM (inactive); in that of `CCc1cccc(NC(=O)c2cccc(S(=O)(=O)N3CCN(C)CC3)c2)c1`, > 26 µM (inactive).
In the case of `CCc1cc(C(c2ccccc2OC)N2CCOCC2)c(NC(=O)c2ccccc2)s1` (stereo not given) it was > 26 µM (inactive); in that of `COC(=O)C1(O)CC(CC(C)C)=NN1C(=O)c1ccccc1` (stereo not given), 20.3 µM.
In the case of `Cc1ccccc1N1CCN(S(=O)(=O)Cc2ccccc2)CC1` it was > 26 µM (inactive).
On to `O=C(Cc1c(O)c2ccccc2[nH]c1=O)NCc1ccccc1`, for which the AC40 is > 26 µM (inactive).
For the molecule `Cc1cc(C)c2cc(C(=O)N(C)C3CCN(C)CC3)[nH]c2c1`, the AC40 was > 26 µM (inactive).
In the case of `CC(=O)c1cccc(N(CC(=O)Nc2ccc(F)cc2F)S(C)(=O)=O)c1` it was 5.46 µM.
